The values that follow are results of earlier work, collected in US20230201309A1, “COMPOSITIONS FOR THE TREATMENT OF A RESPIRATORY CONDITION” (VECTURA LIMITED, priority 2020, published 2023).

The subject of this data set is COVID-19.

With `CCN(CCO)CCCC(C)Nc1ccnc2cc(Cl)ccc12` (centres unmarked) [hydroxychloroquine sulphate], under “hospitalised COVID-19 patients, hydroxychloroquine sulphate monotherapy plus supportive care, total dose 2400 mg, 804/4,542 patients”, the Hospital mortality is given as 17.7%. In addition, the “mortality, adjusted hazard ratio (aHR) vs no-hydroxychloroquine sulphate group” value (multivariate analysis, 95% CI 0.617-0.758) is given as 0.684.
